Results from PubChem BioAssay (NCI).
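Grown in 96-well plates, cells were treated for 48 hours with each compound at five concentrations. Insufficient inhibition: endpoint recorded as highest concentration tested. The concentration for 50% growth inhibition is given as GI50. TGI marks complete inhibition of growth.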

Legend:
Assay in all cases: NCI-60 cell line screen, 48 h
NCI-H23 lung = system: NCI-H23 lung
NCI-H460 lung = system: NCI-H460 lung
NCI-H522 lung = system: NCI-H522 lung
NCI/ADR-RES ovarian = system: NCI/ADR-RES ovarian
OVCAR-3 ovarian = system: OVCAR-3 ovarian
OVCAR-4 ovarian = system: OVCAR-4 ovarian
OVCAR-5 ovarian = system: OVCAR-5 ovarian
OVCAR-8 ovarian = system: OVCAR-8 ovarian
PC-3 prostate = system: PC-3 prostate
RPMI-8226 leukemia = system: RPMI-8226 leukemia
RXF 393 renal = system: RXF 393 renal
SF-268 CNS = system: SF-268 CNS
SF-295 CNS = system: SF-295 CNS
SF-539 CNS = system: SF-539 CNS
SK-MEL-2 melanoma = system: SK-MEL-2 melanoma
SK-MEL-28 melanoma = system: SK-MEL-28 melanoma
SK-MEL-5 melanoma = system: SK-MEL-5 melanoma
SK-OV-3 ovarian = system: SK-OV-3 ovarian
SN12C renal = system: SN12C renal
SNB-19 CNS = system: SNB-19 CNS
SNB-75 CNS = system: SNB-75 CNS
SR leukemia = system: SR leukemia
SW-620 colon = system: SW-620 colon
T-47D breast = system: T-47D breast
TK-10 renal = system: TK-10 renal
U251 CNS = system: U251 CNS
UACC-257 melanoma = system: UACC-257 melanoma
UACC-62 melanoma = system: UACC-62 melanoma
UO-31 renal = system: UO-31 renal

Work on `COc1ccc(OC(=O)O[C@H]2[C@H](O[C@H]3[C@@H](O)COC(O[C@H]4C[C@H]5[C@@H]6CC=C7C[C@@H](O)CC[C@]7(C)[C@H]6CC[C@]5(C)[C@H]4[C@H](C)C(=O)CCC(C)C)[C@@H]3OC(C)=O)OC[C@@H](O)[C@@H]2O)cc1` (some centres not stated) yielded a GI50 (NCI-H23 lung) of 966 nM, a TGI (NCI-H23 lung) of 19100 nM and a GI50 (NCI-H460 lung) of 52.4 nM. For the same molecule, the TGI (NCI-H460 lung) was 3330 nM, the GI50 (NCI-H522 lung) was 165 nM and the TGI (NCI-H522 lung) was 2100 nM. The GI50 (NCI/ADR-RES ovarian) was 13000 nM, the TGI (NCI/ADR-RES ovarian) was > 100000 nM and the GI50 (OVCAR-3 ovarian) was 10700 nM. For the same molecule, the TGI (OVCAR-3 ovarian) was 24500 nM, the GI50 (OVCAR-4 ovarian) was 1120 nM and the TGI (OVCAR-4 ovarian) was 20300 nM. It also gave a GI50 (OVCAR-5 ovarian) of 890 nM, a TGI (OVCAR-5 ovarian) of 15900 nM and a GI50 (OVCAR-8 ovarian) of 12700 nM. It also gave a TGI (OVCAR-8 ovarian) of 50600 nM, a GI50 (PC-3 prostate) of 10.3 nM and a TGI (PC-3 prostate) of 10100 nM. For the same molecule, the GI50 (RPMI-8226 leukemia) was < 10 nM, the TGI (RPMI-8226 leukemia) was 32.1 nM and the GI50 (RXF 393 renal) was < 10 nM. For the same molecule, the GI50 (SF-268 CNS) was 42 nM, the TGI (SF-268 CNS) was 6990 nM and the GI50 (SF-295 CNS) was < 10 nM. For the same molecule, the TGI (SF-295 CNS) was 19.3 nM, the GI50 (SF-539 CNS) was < 10 nM and the TGI (SF-539 CNS) was 76.4 nM. It also gave a GI50 (SK-MEL-2 melanoma) of 19.9 nM, a TGI (SK-MEL-2 melanoma) of 645 nM and a GI50 (SK-MEL-28 melanoma) of 18.5 nM. For the same molecule, the TGI (SK-MEL-28 melanoma) was 155 nM, the GI50 (SK-MEL-5 melanoma) was 34.7 nM and the TGI (SK-MEL-5 melanoma) was 176 nM. The GI50 (SK-OV-3 ovarian) was 329 nM, the TGI (SK-OV-3 ovarian) was 15300 nM and the GI50 (SN12C renal) was 11200 nM. For the same molecule, the TGI (SN12C renal) was 23800 nM, the GI50 (SNB-19 CNS) was 85.7 nM and the TGI (SNB-19 CNS) was 6560 nM. The GI50 (SNB-75 CNS) was < 10 nM, the TGI (SNB-75 CNS) was 10900 nM and the GI50 (SR leukemia) was 10.2 nM. For the same molecule, the TGI (SR leukemia) was 21400 nM, the GI50 (SW-620 colon) was 29.5 nM and the TGI (SW-620 colon) was 1130 nM. The GI50 (T-47D breast) was 50.5 nM, the TGI (T-47D breast) was 19800 nM and the GI50 (TK-10 renal) was 2240 nM. The TGI (TK-10 renal) was 21100 nM, the GI50 (U251 CNS) was 12.1 nM and the TGI (U251 CNS) was 16200 nM. For the same molecule, the GI50 (UACC-257 melanoma) was 172 nM, the TGI (UACC-257 melanoma) was 520 nM and the GI50 (UACC-62 melanoma) was 17.1 nM. The TGI (UACC-62 melanoma) was 51.6 nM, the GI50 (UO-31 renal) was 87.4 nM and the TGI (UO-31 renal) was 995 nM.
